Source: ChEMBL document CHEMBL1138459 (Bioorg Med Chem Lett, 2009)
Active and inactive are the calls of the source. No cut-off for these calls is given here.

Tests used:
[1] = biological target: T1, Peroxisome proliferator-activated receptor alpha (Homo sapiens, UniProt Q07869)
T1 sequence (Q07869 whole entry): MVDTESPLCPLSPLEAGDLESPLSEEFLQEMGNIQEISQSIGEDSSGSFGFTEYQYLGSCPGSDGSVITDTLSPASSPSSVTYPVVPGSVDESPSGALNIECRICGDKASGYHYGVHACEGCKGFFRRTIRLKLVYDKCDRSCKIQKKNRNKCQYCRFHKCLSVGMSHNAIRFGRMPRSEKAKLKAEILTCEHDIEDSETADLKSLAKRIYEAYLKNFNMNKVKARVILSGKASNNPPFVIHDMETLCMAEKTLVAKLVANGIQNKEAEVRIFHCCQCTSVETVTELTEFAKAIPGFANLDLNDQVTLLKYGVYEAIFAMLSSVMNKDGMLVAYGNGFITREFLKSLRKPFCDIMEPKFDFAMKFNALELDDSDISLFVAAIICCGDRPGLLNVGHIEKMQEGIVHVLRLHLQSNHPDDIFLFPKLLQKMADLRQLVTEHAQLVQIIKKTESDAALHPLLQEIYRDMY

[2] = biological target: T1, Peroxisome proliferator-activated receptor alpha; assay: biochemical
[3] = biological target: T2, Peroxisome proliferator-activated receptor delta (Homo sapiens, UniProt Q03181)
T2 sequence (Q03181 whole entry): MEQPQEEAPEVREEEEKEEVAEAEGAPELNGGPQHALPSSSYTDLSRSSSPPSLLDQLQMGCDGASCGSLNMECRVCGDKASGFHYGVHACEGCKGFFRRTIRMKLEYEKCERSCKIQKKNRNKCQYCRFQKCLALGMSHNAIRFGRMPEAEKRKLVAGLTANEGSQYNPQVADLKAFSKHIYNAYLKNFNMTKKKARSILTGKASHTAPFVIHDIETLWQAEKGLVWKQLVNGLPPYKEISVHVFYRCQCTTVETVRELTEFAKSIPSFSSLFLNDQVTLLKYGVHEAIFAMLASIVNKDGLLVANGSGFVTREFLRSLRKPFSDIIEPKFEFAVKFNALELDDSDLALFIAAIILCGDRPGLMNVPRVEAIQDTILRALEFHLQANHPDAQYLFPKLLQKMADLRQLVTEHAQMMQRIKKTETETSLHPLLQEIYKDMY

[4] = tested on: Rattus norvegicus; assay: Antidiabetic activity in Zucker fa/fa rat assessed as glucose infusion rate at 3 mg/kg/day after 7 days by hyperinsulinemic-euglycemic clamp study; type: functional, organism-based
[5] = tested on: Mus musculus; assay: Antidiabetic activity in db/db mouse diabetic model assessed as reduction in post prandial blood glucose level at 0.3 mg/kg/day; type: functional, organism-based
[6] = tested on: Mus musculus; assay: Antidiabetic activity in db/db mouse diabetic model assessed as reduction in post prandial blood glucose level at 3 mg/kg/day; type: functional, organism-based
[7] = tested on: Rattus norvegicus; assay: Antidiabetic activity in Zucker fa/fa rat assessed as HOMA-insulin resistance index at 3 mg/kg/day; type: functional, organism-based
[8] = tested on: Rattus norvegicus; assay: Antidiabetic activity in Zucker fa/fa rat assessed as HOMA-insulin resistance index at 10 mg/kg/day; type: functional, organism-based
[9] = tested on: Rattus norvegicus; assay: Antidiabetic activity in Zucker fa/fa rat assessed as glucose infusion rate at 10 mg/kg/day after 7 days by hyperinsulinemic-euglycemic clamp study; type: functional, organism-based
[10] = tested on: Rattus norvegicus; assay: Antidiabetic activity in Zucker fa/fa rat assessed as fasting plasma insulin level at 10 mg/kg/day; type: functional
[11] = tested on: Mus musculus; assay: Increase in plasma HDLC level in human ApoA1 transgenic mouse model at 10 mg/kg/day after 12 days by FPLC method; type: functional, organism-based
[12] = tested on: Mus musculus; assay: Antidiabetic activity in overnight fasted db/db mouse diabetic model assessed as reduction in blood glucose level at 0.3 mg/kg/day, po chronically for 12 days challenged with glucose 24 hrs post last dose by OGTT; type: functional, organism-based
[13] = Bioavailability in cynomolgus monkey; type: ADME, organism-based, Macaca fascicularis; conditions: in vivo
[14] = Half life in rat; type: ADME, organism-based; conditions: in vivo
[15] = tested on: Mus musculus; assay: Antidiabetic activity in overnight fasted db/db mouse diabetic model assessed as reduction in blood glucose level at 3 mg/kg/day, po chronically for 12 days challenged with glucose 24 hrs post last dose by OGTT; type: functional, organism-based
[16] = tested on: Rattus norvegicus; assay: Antidiabetic activity in Zucker fa/fa rat assessed as HOMA-insulin resistance index at 1 mg/kg/day; type: functional, organism-based
[17] = Total clearance in cynomolgus monkey; type: ADME, organism-based, Macaca fascicularis; conditions: in vivo
[18] = Bioavailability in rat; type: ADME, organism-based; conditions: in vivo
[19] = Total clearance in rat; type: ADME, organism-based; conditions: in vivo
[20] = tested on: Rattus norvegicus; assay: Antidiabetic activity in Zucker fa/fa rat assessed as glucose infusion rate at 1 mg/kg/day after 7 days by hyperinsulinemic-euglycemic clamp study; type: functional, organism-based
[21] = tested on: Mus musculus; assay: Increase in plasma HDLC level in human ApoA1 transgenic mouse model at 3 mg/kg/day after 12 days by FPLC method; type: functional, organism-based
[22] = tested on: Rattus norvegicus; assay: Antidiabetic activity in Zucker fa/fa rat assessed as fasting plasma insulin level at 1 mg/kg/day; type: functional
[23] = Half life in cynomolgus monkey; type: ADME, organism-based, Macaca fascicularis; conditions: in vivo
[24] = tested on: Mus musculus; assay: Increase in plasma HDLC level in human ApoA1 transgenic mouse model at 0.3 mg/kg/day after 12 days by FPLC method; type: functional, organism-based
[25] = tested on: Mus musculus; assay: Increase in plasma HDLC level in human ApoA1 transgenic mouse model at 300 mg/kg/day after 12 days by FPLC method; type: functional, organism-based

EC50 [1] | IC50 [2] | Compound | other results
61 nM | 48 nM | COc1cc(OC)cc(-c2nc(CCOc3ccc(C[C@H](OC)C(=O)O)c4sccc34)c(C)o2)c1 | EC50 [3]: 678 nM
11 nM | 905 nM | CCO[C@@H](Cc1ccc(OCCc2nc(-c3ccc(C(F)(F)F)cc3)oc2C)c2ccccc12)C(=O)O | –
987 nM | 429 nM | Cc1oc(-c2ccc(-c3ccccc3)cc2)nc1CCOc1ccc(C[C@H](OCC(F)(F)F)C(=O)O)c2ccccc12 | –
16 nM | 37 nM | Cc1oc(-c2ccc(C(C)C)cc2)nc1CCOc1ccc(C[C@H](OCC2CC2)C(=O)O)c2sccc12 | –
249 nM | 120 nM | CCCCCCOC(Cc1ccc(OCCc2nc(-c3ccccc3)oc2C)c2ccsc12)C(=O)O (racemic) | –
123 nM | 432 nM | COC(Cc1ccc(OCCc2nc(-c3ccccc3C)oc2C)c2ccccc12)C(=O)O (racemic) | –
48 nM | 239 nM | Cc1oc(-c2ccccc2)nc1CCOc1ccc(CC(OCC(C)C)C(=O)O)c2sccc12 (racemic) | –
27 nM | 21 nM | Cc1oc(-c2ccccc2)nc1CCOc1ccc(C[C@H](OCC2CC2)C(=O)O)c2sccc12 | –
2 nM | 53 nM | CO[C@@H](Cc1ccc(OCCc2nc(-c3ccc(C(F)(F)F)cc3)oc2C)c2ccsc12)C(=O)O | –

The next lines start with the compound.

Compound | EC50 [1] | IC50 [2] | other results
CCO[C@@H](Cc1ccc(OCCc2nc(-c3ccc(-c4ccccc4)cc3)oc2C)c2ccsc12)C(=O)O | 167 nM | 194 nM | –
CO[C@@H](Cc1ccc(OCCc2nc(-c3ccccc3)oc2C)c2sccc12)C(=O)O | 157 nM | 28 nM | EC50 [3]: 137 nM
CN(CCOc1ccc(CC2SC(=O)NC2=O)cc1)c1ccccn1 (stereo not given) | – | – | Activity [4]: Active; Activity [5]: Active; Activity [6]: Active; Activity [7]: Active
CCO[C@@H](Cc1ccc(OCCc2nc(-c3ccc(C(F)(F)F)cc3)oc2C)c2ccsc12)C(=O)O | 89 nM | 63 nM | –
CCO[C@@H](Cc1ccc(OCCc2nc(-c3ccccc3)oc2C)c2sccc12)C(=O)O | 58 nM | 333 nM | –
CC(=O)c1ccccc1N[C@@H](Cc1ccc(OCCc2nc(-c3ccccc3)oc2C)cc1)C(=O)O | 284 nM | 633 nM | Activity [8]: Active; Activity [9]: Active; Activity [10]: 776 ng/mL; Activity [11]: inactive
CO[C@@H](Cc1ccc(OCCc2nc(-c3ccc(C(C)C)cc3)oc2C)c2ccsc12)C(=O)O | 20 nM | 45 nM | –
CCCOC(Cc1ccc(OCCc2nc(-c3ccccc3)oc2C)c2ccccc12)C(=O)O (racemic) | 87 nM | 69 nM | –
Cc1oc(-c2ccccc2)nc1CCOc1ccc(C[C@H](OCC(F)(F)F)C(=O)O)c2sccc12 | 555 nM | 60 nM | –
CO[C@@H](Cc1ccc(OCCc2nc(-c3ccccc3)oc2C)c2ccsc12)C(=O)O [ALEGLITAZAR] | – | – | Activity [12]: Active; bioavailability [13]: 68%; half-life [14]: 4 h; Activity [15]: Active; Activity [16]: Active; clearance [17]: 1.6 mL/min/kg; bioavailability [18]: 70%; Activity [5]: Active; clearance [19]: 6.2 mL/min/kg; Activity [6]: Active; Activity [20]: Active; Activity [21]: Active; Activity [22]: 773 ng/mL; half-life [23]: 12.9 h; Activity [24]: Active
CC(C)(Oc1ccc(C(=O)c2ccc(Cl)cc2)cc1)C(=O)O [FENOFIBRIC ACID] | 69000 nM | 106000 nM | Activity [25]: Active
CCO[C@@H](Cc1ccc(OCCc2nc(-c3ccccc3)oc2C)c2ccccc12)C(=O)O | 11 nM | 198 nM | EC50 [3]: 169 nM
